Test results reported in patent publication US7300770B2, “Detection of microbe contamination on elastomeric articles” (Kimberly-Clark Worldwide, Inc., priority 2004, dated 2007).

Key:
aged chicken juice [1] = experiment: N-docosyl merocyanine dye on cotton fabric spotted with aged chicken juice
aged chicken juice [2] = experiment: Comparative dyes dropped onto aged chicken juice on paper towel; conditions: aged chicken juice on SCOTT paper towel
budgie feces suspension = experiment: N-methyl merocyanine coated towel exposed to budgerigar feces suspension; conditions: tap water control
Description: Budgerigar feces was collected from a caged pet budgie, and shaken in approximately 10 milliliters of Atlanta city domestic tap water.

[3] = system: aged urine (approximately 1x10^5 CFU/milliliters); experiment: N-methyl merocyanine coated towel exposed to aged female human urine; conditions: aged urine filtered through 0.2-micron filter
[4] = Reichardt's dye and TMB coated towel exposed to dilute bleach; conditions: towel coated with mixture of Reichardt's dye and TMB

Row | SMILES | Color change on dropping dye onto aged chicken juice (aged chicken juice [2]) | also measured
1 | CCCCCCCCCCCCCCCCCCCCCC[n+]1ccc(C=Cc2ccc(O)cc2)cc1.[Br-] |  | Color change on spotting aged chicken juice (aged chicken juice [1]; orange-yellow dye spots on cotton fabric): color change to very pale yellow; Color change on spotting aged chicken juice (aged chicken juice [1]; pinkish-orange areas (dye + NaOH soln.)): pinkish-orange to very pale yellow
2 | CC(=O)Nc1ccc(/N=N/c2c(N)ccc3cc(S(=O)(=O)[O-])cc(O)c23)c(S(=O)(=O)[O-])c1.[Na+].[Na+] [Acid Red 37] | No color changes were observed | 
3 | O=C([O-])C1=NN(c2ccc(S(=O)(=O)[O-])cc2)C(=O)C1N=Nc1ccc(S(=O)(=O)[O-])cc1.[Na+].[Na+].[Na+] (centres unmarked) [Acid Yellow 23] | No color changes were observed | 
4 | O=C1/C(=C2\Nc3ccc(S(=O)(=O)[O-])cc3C2=O)Nc2ccc(S(=O)(=O)[O-])cc21.[Na+].[Na+] [Cl Acid Blue 74] | No color changes were observed | 
5 | Cc1ccc(Nc2ccc(Nc3ccc(C)cc3S(=O)(=O)[O-])c3c2C(=O)c2ccccc2C3=O)c(S(=O)(=O)[O-])c1.[Na+].[Na+] [Cl Acid Green 25] | No color changes were observed | 
6 | Cc1ccc(Nc2ccc(Nc3ccc(C)cc3S(=O)(=O)[O-])c3c2C(=O)c2c(O)ccc(O)c2C3=O)c(S(=O)(=O)[O-])c1.[Na+].[Na+] [Cl Acid Green 41] | No color changes were observed | 
7 | CCN(CC)c1ccc2c(-c3ccc(S(=O)(=O)[O-])cc3S(=O)(=O)[O-])c3ccc(=[N+](CC)CC)cc-3oc2c1.[Na+] [Cl Acid Red 52] | No color changes were observed | 
8 | COc1cc(/C=C/c2cc[n+](C)cc2)ccc1[O-] [N-methyl merocyanine dye] |  | Color change of coated towel (budgie feces suspension): remained orange; Color change of coated towel [3]: did not cause a color change
9 | Cc1cc(-c2cc(C)c(N)c(C)c2)cc(C)c1N [TMB] |  | Color response to dilute bleach solution [4]: turning orange/yellow color
